Here are results for five molecules from patent publication US6060516A, “N^1 -propargylhydrazines, N^2 -propargylhydrazines and their analogs for the treatment of depression, anxiety and neurodegeneration” (CV Technologies, Inc., priority 1998, dated 2000).

The test system of test [1] is rat brain and liver monoamine oxidase-A. Put plainly: Monoamine oxidase-A inhibiting activity ex vivo. The class given is in vivo. The conditions noted are these: 5.75 μmol/kg, 5 hr, i.p. in 10% DMSO. The method, then: (§1) Radiolabelled 5-hydroxytryptamine was used as a substrate for monoamine oxidase-A. The compounds of interest were either injected intraperitonealy in DMSO or administered by gavage in water for various periods. The animals were killed by decapitation and the brains and livers immediately removed and frozen until assayed for monoamine oxidase-A activity. Tissues were homogenized and appropriately diluted in buffer prior to incubation. Incubations proceeded at 37° C. for 10 minutes. Incubation was terminated by the addition of acid and the radiolabelled product (5-hydroxyindoleacetaldehyde and 5-hydroxyindoleacetic acid) was extracted and quantified by liquid scintillation counting procedures. Incubations were done in triplicate and incubations containing phenelzine were included for comparison. The percent inhibition of monoamine oxidase-A activity compared to controls containing no drug was calculated.
Values are the mean ± the standard error based on (n) determinations.
Oral doses were administered as 75 μmol/kg on day 1, 75 μmol/kg on
day 2 and the animals were killed 5 hours later.

Test [2] has as its system DSP-4 induced noradrenaline depletion in mouse hippocampus. As to the kind of experiment: Prevention of DSP-4 induced noradrenaline depletion in mouse hippocampus. In kind it is in vivo. As for the experimental part: (§2) Neuroprotectant activity was evaluated by examining the prevention of DSP-4 induced noradrenaline depletion in mouse hippocampus as described in Yu, P. H., Davis, B. A., Fang, J. and Boulton, A. A. (1994), Neuroprotective effect of some monoamine oxidase-B inhibitors against DSP-4 induced noradrenaline depletion in the mouse hippocampus, J. Neurochem. 63: 1820-1828. Briefly, mice were injected (i.p.) with either 20% DMSO or potential neuroprotectants (10 mg/kg in 20% DMSO). One hour later they were injected with either water or DSP-4 (50 mg/kg in water). One week later the mice were killed and the brains removed and the hippocampus dissected out. The hippocampus was frozen and saved for estimation of noradrenaline and other aminergic neurotransmitters and their metabolites as in Sloley, B. D. and Goldberg J. I. (1991), Determination of γ-glutamyl conjugates of monoamines by means of high-performance liquid chromatography with electrochemical detection and application to gastropod tissues, J. Chromatog. 567: 49-56. The rest of the brain was frozen and retained for estimation of monoamine oxidase activities ex vivo as described earlier.

Test [3] relates to MAO-A. Put plainly: MAO-A inhibition ex vivo in DSP-4 treated mice (brain). Further details: species or system mouse. The method, then:
as §1, with “The compounds were evaluated for ex vivo monoamine oxidase-A inhibiting activity using the radiochemical procedure of Lyles, G. A. and Callingham, B. A. (1982). […] Biochem. Pharmacol. 31: 1417-1424. Radiolabelled” for “Radiolabelled”
as §2

For test [4], the system named is NA, DA, 5-HT, 5-HIAA and DOPAC concentrations in rat hypothalamus. As to the kind of experiment: Rat hypothalamus amine and amine metabolite concentrations. The conditions noted are these: 5.75 μmol/kg, 5 hr, ip. In kind it is in vivo. As for the experimental part: The effects of various doses of CVT-P040 on the concentrations of hypothalamus amine neurotransmitters and their metabolites were evaluated by examining concentrations of noradrenaline (NA), dopamine (DA), 5-hydroxytryptamine (5-HT), 5-hydroxyindoleacetic acid (5-HIAA) and 3,4-dihydroxyphenylacetic acid (DOPAC) in rat hypothalami 5 hours after the injection of the drug. […] The brains were removed and divided in half. One half of the brain was frozen in isopentane on dry ice and retained for estimates of amino acid neurotransmitter concentrations. The other half had the hypothalamus removed and frozen on dry ice for later estimates of amines and their metabolites according to the method of Sloley, B. D. and Goldberg J. I. (1991), Determination of γ-glutamyl conjugates of monoamines by means of high-performance liquid chromatography with electrochemical detection and application to gastropod tissues, J. Chromatog. 567: 49-56. The rest of the brain was frozen on dry ice for ex vivo examination of MAO activity as described earlier.

For test [5], the system named is DSP-4 induced noradrenaline depletion in mouse hippocampus. As to the kind of experiment: Prevention of DSP-4 induced noradrenaline depletion in mouse hippocampus. In kind it is in vivo. The conditions noted are these: 10 mg/kg then DSP-4 50 mg/kg; saline control experiment.
Test [6] addresses T1, rat brain monoamine oxidase-A (Rattus norvegicus, UniProt P21396).
T1 construct: appropriately diluted homogenates of rat brain or liver; from tissue; host or cells: rat brain or liver homogenate
T1 sequence (P21396 1-526): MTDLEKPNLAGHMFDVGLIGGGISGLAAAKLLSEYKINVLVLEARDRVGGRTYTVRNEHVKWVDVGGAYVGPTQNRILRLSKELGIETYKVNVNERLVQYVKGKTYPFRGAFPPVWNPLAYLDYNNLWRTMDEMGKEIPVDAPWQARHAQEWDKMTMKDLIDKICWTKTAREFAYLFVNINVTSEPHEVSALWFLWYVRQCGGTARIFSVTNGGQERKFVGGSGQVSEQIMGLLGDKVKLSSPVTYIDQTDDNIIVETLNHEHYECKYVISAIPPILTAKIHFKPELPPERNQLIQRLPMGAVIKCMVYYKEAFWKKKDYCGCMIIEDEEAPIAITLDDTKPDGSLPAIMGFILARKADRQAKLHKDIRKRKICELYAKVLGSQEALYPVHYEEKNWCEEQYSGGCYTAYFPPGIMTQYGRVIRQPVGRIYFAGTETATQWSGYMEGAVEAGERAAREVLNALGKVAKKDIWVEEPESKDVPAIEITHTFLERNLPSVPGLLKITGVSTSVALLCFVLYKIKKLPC
Put plainly: Monoamine oxidase-A inhibiting activity in vitro (radiochemical, 5-hydroxytryptamine substrate, rat brain homogenate). To be noted: for inhibition at 100 µM: 1 × 10^-4 M; for inhibition at 10 µM: 1 × 10^-5 M; for inhibition at 1 µM: 1 × 10^-6 M; for inhibition at 0.1 µM: 1 × 10^-7 M; for inhibition at 0.01 µM: 1 × 10^-8 M. In kind it is biochemical. The method, then: Radiolabelled 5-hydroxytryptamine was used as the substrate for monoamine oxidase-A. Various concentrations of the compounds were incubated in appropriately diluted homogenates of rat brain or liver in a 0.2 M potassium phosphate buffer. Incubations proceeded at 37° C. for 10 minutes. Incubation was terminated by the addition of acid and the radiolabelled product (5-hydroxyindoleacetic acid) was extracted and quantified by liquid scintillation counting procedures. Incubations were done in triplicate and incubations containing phenelzine were included for comparison. The percent inhibition of monoamine oxidase-A activity compared to controls without the compounds of the present invention was calculated.

The target of test [7] is T2, rat brain monoamine oxidase-B (Rattus norvegicus, UniProt P19643).
T2 construct: appropriately diluted homogenates of rat brain or liver; from tissue; host or cells: rat brain or liver homogenate
T2 sequence (P19643 1-520): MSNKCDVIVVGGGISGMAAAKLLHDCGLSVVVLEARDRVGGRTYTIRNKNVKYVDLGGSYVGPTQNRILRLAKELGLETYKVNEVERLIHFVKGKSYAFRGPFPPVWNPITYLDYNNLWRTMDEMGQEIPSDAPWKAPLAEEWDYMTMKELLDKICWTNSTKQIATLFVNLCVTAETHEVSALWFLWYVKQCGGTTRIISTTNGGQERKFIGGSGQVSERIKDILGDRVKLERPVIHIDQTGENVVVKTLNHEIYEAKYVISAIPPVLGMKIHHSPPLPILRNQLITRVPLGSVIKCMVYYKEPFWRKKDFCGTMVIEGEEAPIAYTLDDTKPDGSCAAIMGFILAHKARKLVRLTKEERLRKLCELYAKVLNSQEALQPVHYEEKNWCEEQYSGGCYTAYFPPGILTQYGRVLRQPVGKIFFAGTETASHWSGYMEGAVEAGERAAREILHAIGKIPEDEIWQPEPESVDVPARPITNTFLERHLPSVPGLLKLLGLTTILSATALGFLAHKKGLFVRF
As to the kind of experiment: Monoamine oxidase-B inhibiting activity in vitro (radiochemical, β-phenylethylamine substrate, rat brain homogenate). In kind it is biochemical. The conditions noted are these: for inhibition at 100 µM: 1 × 10^-4 M; for inhibition at 10 µM: 1 × 10^-5 M; for inhibition at 1 µM: 1 × 10^-6 M; for inhibition at 0.1 µM: 1 × 10^-7 M; for inhibition at 0.01 µM: 1 × 10^-8 M. The method, then: Radiolabelled β-phenylethylamine was employed as a substrate for monoamine oxidase-B. Various concentrations of the compounds of interest were incubated in appropriately diluted homogenates of rat brain or liver in a 0.2 M potassium phosphate buffer. Incubations proceeded at 37° C. for 10 minutes. Incubation was terminated by the addition of acid and the radiolabelled product (phenylacetaldehyde and phenylacetic acid) was extracted and quantified by liquid scintillation counting procedures. Incubations were done in triplicate and incubations containing phenelzine were included for comparison. The percent inhibition of monoamine oxidase-B activity compared to controls containing no drug was calculated.

The test system of test [8] is PC12 cells. Put plainly: PC12 neurite outgrowth (neurotrophic effect). In kind it is cell-based. The conditions noted are these: for Index of Neurite Outgrowth: seven days. The method, then: The effects of CVT-P040 on neurite outgrowth in cell culture were investigated using an established PC 12 pheochromocytoma cell culture. The effects of CVT-P040 and nerve growth factor on neurite outgrowth were estimated using the method described by Rydel, R. E and Greene, L. A.(1987), Acidic and basic fibroblast growth factors promote stable neurite outgrowth and basic neuronal differentiation in cultures of PC12 cells, J. Neuroscience 7: 3639-3653. Briefly, PC12 cells were seeded and maintained in 100 cm^2 tissue culture dishes at 37° C. in RPMI1640 media containing 1% antibiotics, 10% heat inactivated horse serum and 5% fetal bovine serum in a water saturated atmosphere of 95% air and 5% CO2. The cells were mechanically dislodged and plated into 35 mm collagen-coated tissue culture dishes containing a total of 2.0 ml complete medium at a density of […]. The medium was changed 3 times/week. Cellular responses to CVT-P040 and nerve growth factor (NGF) were determined by counting the number of PC12 cells containing processes. Photographs of the cells were taken after seven days treatment. Two cell fields were chosen in each dish and the photographs developed and printed. […] The neurite index was calculated using the following formula; Neurite Index=total neurite score (ΣS)/ total cell number (ΣN); ΣS=S1×N+S2×N +S3×N+S4×N, where N is the number of cells in each cell field.

The mark [9] stands for this setting: 10 mg/kg i.p. then DSP-4 50 mg/kg, 20% DMSO control experiment.

In the case of `C#CCN(C)[C@H](C)Cc1ccccc1` [(-)-deprenyl, reference compound], in test [1] (brain), the “% Inhibition Monoamine Oxidase-A” value is reported as -0.6 ± 1.1%. The “% Inhibition Monoamine Oxidase-A” value in test [1] (liver) amounted to 8.0 ± 2.2%. In addition, in test [2] (setting [9]), the “% NA Restoration” value was found to be 86.6% and the NA amounted to 315 ± 34 ng/g. Further, in test [2] (10 mg/kg, mouse hippocampus, in words), the “protection against DSP-4 induced noradrenaline depletion / neuroprotective effect” value was “significantly protected against DSP-4 induced noradrenaline depletion”. Moreover, the “MAO-A % Inhibition” value in test [3] (setting [9]) turned out to be 18.8 ± 6.0%. Also, in test [3] (10 mg/kg then DSP-4 50 mg/kg, saline control experiment), the “MAO-A % Inhibition” value is given as 9.9 ± 6.0%. In test [4], the 5-HIAA was 407 ± 22 ng/g, the 5-HT turned out to be 821 ± 44 ng/g, the DA was 541 ± 44 ng/g and the DOPAC turned out to be 87 ng/g. For the same molecule, in test [4], the NA worked out at 1510 ± 70 ng/g. Besides, in test [5], the “% NA Restoration” value was determined as 73.1% and the NA came out at 432 ± 13 ng/g.
Take `C#CCNNCCc1ccccc1` [CVT-P039, N^2 -propargylphenelzine]: in test [6], the inhibition at 100 µM worked out at 31.6% and the inhibition at 10 µM was -25.8%. Also, in test [7], the inhibition at 100 µM worked out at 20.9% and the inhibition at 10 µM is -0.2%.
With `C#CCN(N)Cc1ccccc1` [CVT-P046, N^1 -propargylbenzylhydrazine], in test [6], the inhibition at 100 µM turned out to be 100%, the inhibition at 10 µM was determined as 99.4%, the inhibition at 1 µM came to 49.4% and the inhibition at 0.1 µM turned out to be 18.5%. In test [6], the inhibition at 0.01 µM is -5%. For the same molecule, in test [7], the inhibition at 100 µM came to 100%, the inhibition at 10 µM worked out at 92.3%, the inhibition at 1 µM stood at 86.2% and the inhibition at 0.1 µM is 64.9%. The inhibition at 0.01 µM in test [7] stood at 18.6%.
On to `C#CCN(N)c1ccccc1` [CVT-P047, N^1 -propargylphenylhydrazine], for which, in test [6], the inhibition at 100 µM is 99.7%, the inhibition at 10 µM was 78.2%, the inhibition at 1 µM is 15.9% and the inhibition at 0.1 µM was -3.8%. Besides, in test [6], the inhibition at 0.01 µM is -2.9%. In addition, in test [7], the inhibition at 100 µM was determined as 100%, the inhibition at 10 µM is 94.3%, the inhibition at 1 µM turned out to be 65.1% and the inhibition at 0.1 µM is 17.9%. Moreover, the inhibition at 0.01 µM in test [7] amounted to 0.1%.
Turning to NGF: nerve growth factor (NGF), the results for the “Index of Neurite Outgrowth” value in test [8] (NGF 0.1 ng/ml), in test [8] (NGF 0.3 ng/ml) and in test [8] (NGF 1.0 ng/ml) were 0.58 ± 0.03, 0.79 ± 0.07 and 1.16 ± 0.06, respectively. The “neurite outgrowth in PC12 cells” value in test [8] (NGF 0.1, 0.3 and 1.0 ng/ml, in words) is “increased neurite outgrowth in PC12 cells”.

By inhibition is commonly meant the change of the read-out against control, counted positive when it falls.
